The results in this text go back to ChEMBL document CHEMBL5321251, “Visible light-activated prodrug system with a novel heavy-atom-free photosensitizer” (Bioorg Med Chem Lett, 2023).

Series [1] relates to HeLa. The experiment in a line: Cytotoxicity against human HeLa cells assessed as inhibition of cell growth pre-treated with compound for 3 hrs followed by 620/25 nm red light irradiation for 30 mins measured after 72 hrs by CCK-8 assay. The series is classed as functional, cell-based. Conditions: for pIC50: light or radiation study. On the technique in general: Tetrazolium dyes change colour on reduction, which living cells bring about.

Series [2] is described as follows: Photoactivation of the compound assessed as photocleavage in the presence of 620/25 nm red light irradiation by LC-MS analysis.
Series [3] is described as follows: Photoactivation of the compound assessed as photocleavage in the presence of 520/25 nm green light irradiation by LC-MS analysis.
The nature of series [4]: Photoactivation of the compound assessed as photocleavage in the presence of 620/25 nm red light irradiation measured after 30 mins by LC-MS analysis. Particulars: 0.5 h.
Series [5] in a line: Photoactivation of the compound assessed as photocleavage in the absence of 620/25 nm red light irradiation measured after 2 hrs by LC-MS analysis.
For series [6], the system named is HeLa. Nature of the series: Cytotoxicity against human HeLa cells assessed as inhibition of cell growth pre-treated with compound for 3 hrs measured after 72 hrs in dark condition by CCK-8 assay. Particulars: time 75.0 hrs. Format: functional, cell-based.
Series [7] is described as follows: Photoactivation of the compound assessed as photocleavage in the presence of 620/25 nm red light irradiation measured after 2 hrs by LC-MS analysis.

pIC50: −log10 of the molar value. Active and inactive are the calls of the source. The rule behind the calls is not given here.

For the molecule `CC(=O)O[C@H]1C(=O)[C@@]2(C)[C@H]([C@H](OC(=O)c3ccccc3)[C@]3(O)C[C@H](OC(=O)[C@H](OC(=O)/C=C/N4CCC(COC(=O)CN5C(=O)c6cc7ccc(N(C)C)cc7cc6C5=O)CC4)[C@@H](NC(=O)c4ccccc4)c4ccccc4)C(C)=C1C3(C)C)[C@]1(OC(C)=O)CO[C@@H]1C[C@@H]2O`, the values for the Drug metabolism entry (in the series with HeLa [1] (time 75.5 hrs); in series [2]) were “Metabolite not detected” and “Metabolite_Notdetected”, respectively.

`CC(=O)O[C@H]1C(=O)[C@@]2(C)[C@H]([C@H](OC(=O)c3ccccc3)[C@]3(O)C[C@H](OC(=O)[C@H](OC(=O)/C=C/N4CCC(COC(=O)CN5C(=S)c6cc7ccc(N(C)C)cc7cc6C5=S)CC4)[C@@H](NC(=O)c4ccccc4)c4ccccc4)C(C)=C1C3(C)C)[C@]1(OC(C)=O)CO[C@@H]1C[C@@H]2O`: the pIC50 with HeLa [1] is 8.14. Further, the Drug metabolism entry in series [3] was “Metabolite_Detected”; in series [4], 80%; in series [5], “Metabolite_Notdetected”. Besides, the outcome in the series on HeLa [6] was inactive.

Take `COc1ccc(/C=C\c2cc(OC)c(OC)c(OC)c2)cc1OC(=O)/C=C/N1CCC(COC(=O)CN2C(=S)c3cc4ccc(N(C)C)cc4cc3C2=S)CC1`: in the series on HeLa [1], the pIC50 is 7.84. Moreover, the Drug metabolism in series [4] was 50%; in series [5], “Metabolite_Notdetected”; in series [7], below 20%.

`CC(=O)O[C@H]1C(=O)[C@@]2(C)[C@H]([C@H](OC(=O)c3ccccc3)[C@]3(O)C[C@H](OC(=O)[C@H](O)[C@@H](NC(=O)c4ccccc4)c4ccccc4)C(C)=C1C3(C)C)[C@]1(OC(C)=O)CO[C@@H]1C[C@@H]2O` [PACLITAXEL]: the pIC50 with HeLa [1] is 7.88.

`CCc1c2c(nc3ccc(OC(=O)/C=C/N4CCC(COC(=O)CN5C(=S)c6cc7ccc(N(C)C)cc7cc6C5=S)CC4)cc13)-c1cc3c(c(=O)n1C2)COC(=O)[C@]3(O)CC`: in the series with HeLa [1], the pIC50 was 7.08. Further, the Drug metabolism in series [4] is on record as 50%; in series [5], “Metabolite_Notdetected”; in series [7], below 20%.

Broadly, the pIC50 is −log10 of the IC50, conventionally taken in molar units.
